From PubChem BioAssay AID266 (DTP/NCI, 2004)
“And” between values parts separate entries of the source, which are not always exact repeats. Equal entries are not always repeated. Inconclusive results are not listed.

Test system: Nude mice, LX-1 lung xenograft intrarenal, tumor weight T/C
Test: NCI In Vivo Anticancer Drug Screen. Data for tumor model Human Lung LX-1 Xenograft (intrarenal inoculation) in NU/NU BALB/C (nude) mice
Conditions: endpoint: mean tumor weight change, higher = larger tumour
Procedure: The antitumor activity of compounds was measured in mice bearing transplantable tumors. Survival or tumor size were measured and the results are expressed as the measurement made in the treated group (T) divided by the measurement made in the vehicle treated control group (C). The tumor model used in this assay is Human Lung LX-1 Xenograft (intrarenal inoculation) in NU/NU BALB/C (nude) mice

[1] = dose: 200.0 mg/kg/injection, schedule: Q01DX010 (sc), vehicle: saline
[2] = dose: 400.0 mg/kg/injection, schedule: Q01DX010 (sc), vehicle: saline
[3] = dose: 300.0 mg/kg/injection, schedule: Q04DX003 (sc), vehicle: saline with Tween-80
[4] = dose: 600.0 mg/kg/injection, schedule: Q04DX003 (sc), vehicle: saline with Tween-80
[5] = dose: 1200.0 mg/kg/injection, schedule: Q04DX003 (sc), vehicle: saline with Tween-80
[6] = dose: 2400.0 mg/kg/injection, schedule: Q04DX003 (sc), vehicle: saline with Tween-80
[7] = dose: 50.0 mg/kg/injection, schedule: Q01DX010 (sc), vehicle: saline with Tween-80
[8] = dose: 75.0 mg/kg/injection, schedule: Q04DX003 (sc), vehicle: saline with Tween-80

In the case of `C1CN2CN3CCN(CN1C3)C2`, the T/C (dose: 50.0 mg/kg/injection, schedule: Q01DX010 (sc), vehicle: saline) is reported as 68 % of control, the T/C [1] is reported as 48 % of control and the T/C [2] is reported as 23 % of control.

With `Cc1cc(NCCCCCCCCNc2cc(C)nc3cc(N(C)C)ccc23)c2ccc(N(C)C)cc2n1` the T/C (dose: 37.5 mg/kg/injection, schedule: Q01DX010 (sc), vehicle: distilled water + Tween-80 + alcohol) was 51 % of control, the T/C (dose: 75.0 mg/kg/injection, schedule: Q04DX003 (sc), vehicle: distilled water + Tween-80 + alcohol) was 64 % of control and the T/C (dose: 150.0 mg/kg/injection, schedule: Q04DX003 (sc), vehicle: distilled water + Tween-80 + alcohol) was 46 % of control. For the same compound, the T/C (dose: 300.0 mg/kg/injection, schedule: Q04DX003 (sc), vehicle: distilled water + Tween-80 + alcohol) was 13 % of control.

With `CCC12C[N+]3([O-])CCc4c([nH]c5ccccc45)C(C(=O)OC)(c4cc5c(cc4OC)N(C)C4C(O)(C(=O)OC)C(OC(C)=O)C6(CC)C=CCN7CCC54C76)CC(C3)C1O2` (configuration not stated) the T/C (dose: 40.0 mg/kg/injection, schedule: Q04DX003 (sc), vehicle: water) was 64 % of control, the T/C (dose: 80.0 mg/kg/injection, schedule: Q04DX003 (sc), vehicle: water) was 86 % of control and the T/C (dose: 160.0 mg/kg/injection, schedule: Q04DX003 (sc), vehicle: water) was 93 % of control. The T/C (dose: 320.0 mg/kg/injection, schedule: Q04DX003 (sc), vehicle: water) was 93 % of control.

For `CN(C)N=Nc1ccc(C(=O)O)cc1`, the T/C (dose: 50.0 mg/kg/injection, schedule: Q04DX003 (ip), vehicle: saline) was 2 % of control and 4 % of control and the T/C (dose: 400.0 mg/kg/injection, schedule: Q04DX003 (ip), vehicle: saline) was -62 % of control and -40 % of control.

`Oc1c(Cl)cc(Cl)cc1C=NCCSc1ccc(Cl)cc1` was tested, and the T/C (dose: 150.0 mg/kg/injection, schedule: Q04DX003 (ip), vehicle: Klucel (hydroxypropylcellulose) (HPC)) was 71 % of control and the T/C (dose: 1200.0 mg/kg/injection, schedule: Q04DX003 (ip), vehicle: Klucel (hydroxypropylcellulose) (HPC)) was 70 % of control.

`O=C(c1cccnc1)c1cc(-c2ccccn2)c(=O)n2ccccc12` was tested, and the T/C [3] was 95 % of control, the T/C [4] was 74 % of control and the T/C [5] was 92 % of control. For the same compound, the T/C [6] was 74 % of control.

With `CC[C@@]1(O)C(=O)OCc2c1cc1n(c2=O)Cc2cc3ccccc3nc2-1` the T/C (dose: 5.0 mg/kg/injection, schedule: Q04DX003 (sc), vehicle: saline with Tween-80) was 15 % of control, the T/C (dose: 10.0 mg/kg/injection, schedule: Q04DX003 (sc), vehicle: saline with Tween-80) was 5 % of control and 12 % of control and the T/C (dose: 20.0 mg/kg/injection, schedule: Q04DX003 (sc), vehicle: saline with Tween-80) was 3 % of control and 4 % of control.

In the case of `CC[C@@]1(O)C[C@H](OC2CC(N(C)C)C(OC3CC(O)C(OC4CCC(=O)C(C)O4)C(C)O3)C(C)O2)c2c(cc3c(c2O)C(=O)c2c(O)cccc2C3=O)[C@H]1C(=O)OC` (some centres not stated), the T/C (dose: 1.0 mg/kg/injection, schedule: Q01DX010 (sc), vehicle: water) is reported as 36 % of control, the T/C (dose: 1.66 mg/kg/injection, schedule: Q04DX003 (sc), vehicle: water) is reported as 63 % of control and the T/C (dose: 2.0 mg/kg/injection, schedule: Q01DX010 (sc), vehicle: water) is reported as 6 % of control. For the same compound, the T/C (dose: 3.33 mg/kg/injection, schedule: Q04DX003 (sc), vehicle: water) was 60 % of control and the T/C (dose: 6.65 mg/kg/injection, schedule: Q04DX003 (sc), vehicle: water) was 18 % of control.

In the case of `O=C1NC(O)CCN1C1OC(CO)C(O)C1O` (configuration not stated), the T/C (dose: 200.0 mg/kg/injection, schedule: Q01DX010 (sc), vehicle: water) is reported as 257 % of control, the T/C (dose: 400.0 mg/kg/injection, schedule: Q01DX010 (sc), vehicle: water) is reported as 196 % of control and the T/C (dose: 800.0 mg/kg/injection, schedule: Q01DX010 (sc), vehicle: water) is reported as 223 % of control. For the same compound, the T/C (dose: 1600.0 mg/kg/injection, schedule: Q01DX010 (sc), vehicle: water) was 176 % of control.

`C=C(C)C(=O)O[C@H]1CC2=C[C@@H](C[C@@]3(C)O[C@@H]3[C@H]3OC(=O)C(=C)[C@@H]31)OC2=O` was tested, and the T/C (dose: 75.0 mg/kg/injection, schedule: Q04DX003 (sc), vehicle: Klucel (hydroxypropylcellulose) (HPC)) was 64 % of control, the T/C (dose: 150.0 mg/kg/injection, schedule: Q04DX003 (sc), vehicle: Klucel (hydroxypropylcellulose) (HPC)) was 91 % of control and the T/C (dose: 300.0 mg/kg/injection, schedule: Q04DX003 (sc), vehicle: Klucel (hydroxypropylcellulose) (HPC)) was 58 % of control.

`O=C(Nc1cc(Cl)ccc1C(=O)O)c1cccc(C[n+]2ccccc2)c1` was tested, and the T/C (dose: 150.0 mg/kg/injection, schedule: Q04DX003 (ip), vehicle: saline with Tween-80) was 67 % of control and the T/C (dose: 300.0 mg/kg/injection, schedule: Q04DX003 (ip), vehicle: saline with Tween-80) was 100 % of control.

In the case of `C1CN1c1nc(N2CC2)nc(N2CC2)n1`, the T/C (dose: 0.25 mg/kg/injection, schedule: Q01DX010 (sc), vehicle: saline) is reported as 34 % of control and the T/C (dose: 0.5 mg/kg/injection, schedule: Q01DX010 (sc), vehicle: saline) is reported as 45 % of control.

With `CNC(=O)O/N=C(\CN=[N+]=[N-])C(C)(C)C` the T/C (dose: 1.25 mg/kg/injection, schedule: Q04DX003 (sc), vehicle: saline) was 73 % of control.

In the case of `COc1cc(C[C@H]2c3cc(OC)c(OC)cc3CCN2C)c(Oc2cc3c(cc2OC)-c2c(OC)c(OC)cc4c2[C@H](C3)N(C)CC4)cc1OC`, the T/C [7] is reported as 85 % of control, the T/C (dose: 100.0 mg/kg/injection, schedule: Q01DX010 (sc), vehicle: saline with Tween-80) is reported as 107 % of control and the T/C (dose: 200.0 mg/kg/injection, schedule: Q01DX010 (sc), vehicle: saline with Tween-80) is reported as 73 % of control. For the same compound, the T/C (dose: 400.0 mg/kg/injection, schedule: Q01DX010 (sc), vehicle: saline with Tween-80) was 90 % of control.

In the case of `CCN(CC)Cc1cc2[nH]c3c4ccc(Cl)cc4ncc3c2cc1OC`, the T/C [8] is reported as 73 % of control, the T/C (dose: 150.0 mg/kg/injection, schedule: Q04DX003 (sc), vehicle: saline with Tween-80) is reported as 71 % of control and the T/C [3] is reported as 86 % of control.

`CC(=O)NC(Cc1ccc(F)cc1)C(=O)O` (configuration not stated) was tested, and the T/C [3] was 112 % of control, the T/C [4] was 71 % of control and the T/C [5] was 91 % of control. For the same compound, the T/C [6] was 107 % of control.

With `COCC(O)Cn1ccnc1[N+](=O)[O-]` (configuration not stated) the T/C (dose: 2400.0 mg/kg/injection, schedule: Q04DX003 (sc), vehicle: suspension in saline) was 104 % of control.

For `Cc1cc2nc3[nH]c4ccccc4c3nc2cc1C`, the T/C (dose: 100.0 mg/kg/injection, schedule: Q01DX010 (sc), vehicle: saline) was 88 % of control, the T/C [1] was 190 % of control and the T/C [2] was 92 % of control. The T/C (dose: 800.0 mg/kg/injection, schedule: Q01DX010 (sc), vehicle: saline) was 97 % of control.

In the case of `C1CC[N-]CC1.[Cl][Pt+2][Cl].[NH-]C1CC1`, the T/C (dose: 25.0 mg/kg/injection, schedule: Q04DX003 (sc), vehicle: water) is reported as 106 % of control, the T/C (dose: 50.0 mg/kg/injection, schedule: Q04DX003 (sc), vehicle: water) is reported as 71 % of control and the T/C (dose: 100.0 mg/kg/injection, schedule: Q04DX003 (sc), vehicle: water) is reported as 51 % of control.

With `CCC1CCCCN1C(=S)N/N=C(\C)c1ccccn1` (configuration not stated) the T/C (dose: 18.75 mg/kg/injection, schedule: Q04DX003 (sc), vehicle: saline with Tween-80) was 100 % of control, the T/C (dose: 37.5 mg/kg/injection, schedule: Q04DX003 (sc), vehicle: saline with Tween-80) was 83 % of control and the T/C [8] was 81 % of control.

In the case of `Nc1nnc[se]1`, the T/C (dose: 100.0 mg/kg/injection, schedule: Q04DX003 (sc), vehicle: saline with Tween-80) is reported as 82 % of control, the T/C (dose: 200.0 mg/kg/injection, schedule: Q04DX003 (sc), vehicle: saline with Tween-80) is reported as 40 % of control and the T/C (dose: 400.0 mg/kg/injection, schedule: Q04DX003 (sc), vehicle: saline with Tween-80) is reported as 30 % of control.

In the case of `CC(C)CCCCCCCCCCCCC(=O)NCC(=O)NC1C(O)C(O)C(Nc2ncnc3nc[nH]c23)OC1C(O)CO` (configuration not stated), the T/C (dose: 0.4 mg/kg/injection, schedule: Q01DX010 (sc), vehicle: saline) is reported as 98 % of control and the T/C (dose: 0.8 mg/kg/injection, schedule: Q01DX010 (sc), vehicle: saline) is reported as 24 % of control.

With `CN(C)N=Nc1ccc(S(N)(=O)=O)cc1` the T/C (dose: 100.0 mg/kg/injection, schedule: Q01DX010 (sc), vehicle: Klucel (hydroxypropylcellulose) (HPC)) was -13 % of control, the T/C (dose: 100.0 mg/kg/injection, schedule: Q04DX003 (sc), vehicle: Klucel (hydroxypropylcellulose) (HPC)) was 38 % of control and 61 % of control and the T/C (dose: 200.0 mg/kg/injection, schedule: Q01DX010 (sc), vehicle: Klucel (hydroxypropylcellulose) (HPC)) was -72 % of control. For the same compound, the T/C (dose: 200.0 mg/kg/injection, schedule: Q04DX003 (sc), vehicle: Klucel (hydroxypropylcellulose) (HPC)) was 3 % of control and 11 % of control and the T/C (dose: 400.0 mg/kg/injection, schedule: Q01DX010 (sc), vehicle: Klucel (hydroxypropylcellulose) (HPC)) was -100 % of control.

With `CC1=C(/C=C/C(C)=C/C=C/C(C)=C/C(=O)O)C(C)(C)CCC1` the T/C [7] was 75 % of control.
